# In article PMC6934184, “Selective DNA-PKcs inhibition extends the therapeutic index of localized radiotherapy and chemotherapy” (The Journal of Clinical Investigation, 2019):
# Biological target: T1, CSNK1D (CK1 delta) (Homo sapiens, UniProt P48730)
# T1 construct: purchased Thermo Fisher Scientific (Life Technologies) SelectScreen
# Test: SelectScreen Z'LYTE
# Type: biochemical
# Summary of the method: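 SelectScreen broad panel; activity (Z'LYTE, Adapta) plus binding formats. ATP: Km app for CSF1R Z'LYTE; 10 for CAMK1 Adapta. Readout = % per kinase.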
# T1 sequence (P48730 whole entry): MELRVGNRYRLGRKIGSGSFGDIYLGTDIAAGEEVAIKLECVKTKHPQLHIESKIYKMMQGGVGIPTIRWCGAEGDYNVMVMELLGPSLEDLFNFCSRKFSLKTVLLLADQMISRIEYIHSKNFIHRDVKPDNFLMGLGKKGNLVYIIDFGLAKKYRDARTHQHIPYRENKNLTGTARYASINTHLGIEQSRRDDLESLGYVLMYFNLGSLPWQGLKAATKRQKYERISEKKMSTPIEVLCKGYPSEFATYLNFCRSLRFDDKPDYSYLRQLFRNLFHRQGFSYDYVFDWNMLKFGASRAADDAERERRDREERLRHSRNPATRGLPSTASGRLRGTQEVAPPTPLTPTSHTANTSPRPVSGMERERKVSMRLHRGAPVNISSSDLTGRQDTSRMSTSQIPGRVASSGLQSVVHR
compound,measurement,value
CN(C(=O)CN1CCOCC1)c1ccc2sc3c(-c4cccc5c(=O)cc(N6CC7CCC(C6)O7)oc45)cccc3c2c1 [NU5455],inhibition at 1 µM,2.6%
